Source: EP4585599A1, “NITROGEN-CONTAINING FUSED RING COMPOUND, INTERMEDIATE THEREOF, PREPARATION METHOD THEREFOR AND USE THEREOF” (Hangzhou Synrx Therapeutics Biomedical Technology Co., Ltd., priority 2022, dated 2024)
Where two headings read alike, the source gives them in different places.

Legend:
[1] = target: T1, helicase domain of the Pol θ protein (Homo sapiens, UniProt O75417); experiment: Biochemical Activity Assay (ADP Glo Assay) of Pol θ inhibitor, ATPase activity; conditions: ssDNA substrate, read-out: Biochemical assay IC50
T1 construct: The helicase domain of the Pol θ protein was purified from insect protein expression system; made in house; host or cells: insect protein expression system

cells = conditions: Homo sapiens, DLD-1, 240 h
[2] = ADP-Glo assay, ATPase activity of Pol θ helicase domain
[3] = ADP-Glo, 60 min at room temperature
[4] = read-out: Cell viability assay IC50 (nM), CTG assay, CellTiter Glo, read on Day 10, cell line not given
[5] = read-out: Cell viability assay IC50 (nM), CTG on Day 10, cell line not given (method: DLD1 and DLD1^-/- cells)

T1 sequence (O75417 102-554 limits assumed): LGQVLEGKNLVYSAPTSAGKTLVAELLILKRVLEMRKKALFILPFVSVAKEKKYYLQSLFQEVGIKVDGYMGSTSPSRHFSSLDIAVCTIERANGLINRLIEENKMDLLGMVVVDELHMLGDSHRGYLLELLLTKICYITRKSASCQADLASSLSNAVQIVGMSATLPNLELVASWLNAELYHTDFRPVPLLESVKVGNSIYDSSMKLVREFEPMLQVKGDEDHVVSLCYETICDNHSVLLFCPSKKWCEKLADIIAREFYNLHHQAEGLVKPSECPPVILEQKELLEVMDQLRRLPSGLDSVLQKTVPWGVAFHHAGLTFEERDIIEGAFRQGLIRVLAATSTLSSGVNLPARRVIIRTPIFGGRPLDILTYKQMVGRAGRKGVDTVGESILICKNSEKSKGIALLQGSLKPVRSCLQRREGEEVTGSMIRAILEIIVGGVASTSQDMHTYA

Row | IC50 [1, 2] | IC50 [1, 3] | Compound | IC50 (cells; [4]) | IC50 (cells; [5]) | IC50 (cells; read-out: Cell viability assay IC50 (nM))
1 | 2.84 nM | < 50 nM | COc1cnc(Cl)cc1-c1cc(C)ncc1C(=O)Nc1nc2ncc(C3=CCC(NC(C)=O)CC3)cc2s1 (centres unmarked) [Example 23] | 15.3 nM | < 100 nM | –
2 | 15.2 nM | < 50 nM | COc1cnc(Cl)cc1-c1cc(C)ncc1C(=O)Nc1nc2ccc(-c3ccn(C)n3)nc2s1 [Example 24] | 192 nM | 100 to 500 nM | –
3 | 3.94 nM | < 50 nM | COc1cnc(Cl)cc1-c1cc(C)ncc1C(=O)Nc1nc2ncc(-n3ccccc3=O)cc2s1 [Example 25] | 138 nM | 100 to 500 nM | –
4 | 12.9 nM | < 50 nM | COc1cnc(Cl)cc1-c1cc(C)ncc1C(=O)Nc1nc2ccc([C@H]3CC[C@H](O)CC3)nc2s1 [Example 29] | 131 nM | 100 to 500 nM | –
5 | 1.62 nM | < 50 nM | COc1cnc(Cl)c(F)c1-c1cc(C)ncc1C(=O)Nc1nc2ccc(C3CCC(O)CC3)cc2s1 (centres unmarked) [Example 30] | 19.2 nM | < 100 nM | –
6 | 196 nM | 50 to 200 nM | COc1cccc(F)c1-c1cc(C)ncc1C(=O)Nc1nc2ccc([C@H]3CC[C@H](O)CC3)nc2s1 [Example 32] | 7080 nM | > 1000 nM | –
7 | 48.9 nM | < 50 nM | COc1cnc(Cl)cc1-c1cnccc1C(=O)Nc1nc2ccc([C@H]3CC[C@H](O)CC3)nc2s1 [Example 34] | 2000 nM | > 1000 nM | –
8 | 251 nM | 200 to 500 nM | COc1cnc(Cl)cc1-c1cc(C)ncc1C(=O)Nc1nc2cc(C3CCC(O)CC3)cnc2s1 (centres unmarked) [Example 35] | 3290 nM | > 1000 nM | –
9 | 236 nM | 200 to 500 nM | COc1cnc(Cl)cc1-c1cc(C)ncc1C(=O)Nc1nc2ccc(C3CCN(C)CC3)nc2s1 [Example 36] | 584 nM | 500 to 1000 nM | –
10 | 4.36 nM | < 50 nM | COc1cnc(Cl)cc1-c1cc(C)ncc1C(=O)Nc1nc2ncc(C3CCOCC3)cc2s1 [Example 37] | 44.7 nM | < 100 nM | –
11 | 53 nM | 50 to 200 nM | COc1cnc(Cl)cc1-c1cc(C)ncc1C(=O)Nc1nc2ccc(N3CCC(O)C3)nc2s1 (centres unmarked) [Example 47] | 631 nM | 500 to 1000 nM | –
12 | 26.4 nM | < 50 nM | COc1cnc(Cl)cc1-c1cc(C)ncc1C(=O)Nc1nc2ccc(N3CCC(C)(O)CC3)cc2s1 [Example 48] | 165 nM | 100 to 500 nM | –
13 | 7.58 nM | < 50 nM | COc1cnc(Cl)c(F)c1-c1cc(C)ncc1C(=O)Nc1nc2ncc(N3CCOCC3)cc2s1 [Example 49] | 54.1 nM | < 100 nM | –
14 | 8.39 nM | < 50 nM | COc1cnc(Cl)cc1-c1cc(C)ncc1C(=O)Nc1nc2ncc(N3CCS(=O)(=O)CC3)cc2s1 [Example 50] | 541 nM | 500 to 1000 nM | –
15 | 9.5 nM | < 50 nM | COc1cnc(Cl)cc1-c1cc(C)ncc1C(=O)Nc1nc2cnc(N3CCC(O)CC3)cc2s1 [Example 51] | 85.8 nM | < 100 nM | –
16 | 2.62 nM | < 50 nM | COc1cnc(Cl)cc1-c1cc(C)ncc1C(=O)Nc1nc2cnc(N3CCC(O)CC3)nc2s1 [Example 52] | 20.7 nM | < 100 nM | –

Row | IC50 [1, 2] | IC50 [1, 3] | Compound | IC50 (cells; [4]) | IC50 (cells; [5]) | IC50 (cells; read-out: Cell viability assay IC50 (nM))
17 | 1.96 nM | < 50 nM | COc1cnc(Cl)c(F)c1-c1cc(C)ncc1C(=O)Nc1nc2ccc(N3CCC(O)CC3)nc2s1 [Example 53] | 9.38 nM | < 100 nM | –
18 | 222 nM | 200 to 500 nM | COc1cnc(Cl)cc1-c1cc(C)ncc1C(=O)Nc1nc2ccc(C3=CCC(O)CC3)nc2[nH]1 (centres unmarked) [Example 56, 2'-chloro-N-(5-(4-hydroxycyclohex-1-en-1-yl)-3H-imidazo[4,5-b]pyridin-2-yl)-5'-methox y-6-methyl-[4,4'-bipyridine]-3-carboxamide] | 9620 nM | > 1000 nM | –
19 | 2.51 nM | < 50 nM | COc1cnc(Cl)cc1-c1cc(C)ncc1C(=O)Nc1nc2ncc(N3CCC(NC(C)=O)CC3)cc2s1 [Example 57, N-(6-(4-acetaminopiperidin-1-yl)thiazolo[4,5-b]pyridin-2-yl)-2'-chloro-5'-methoxy-6-me thyl-[4,4'-bipyridine]-3-carboxamide] | 126 nM | 100 to 500 nM | –
20 | 11 nM | < 50 nM | COc1cnc(Cl)cc1-c1cc(C)ncc1C(=O)Nc1nc2ncc(N3CCC(N)CC3)cc2s1 [Example 58] | 3420 nM | > 1000 nM | –
21 | 3.63 nM | < 50 nM | COc1cnc(Cl)cc1-c1cc(C)ncc1C(=O)Nc1nc2ncc(N3CCC(O)CC3)cc2s1 [Example 59] | 82.5 nM | < 100 nM | –
22 | 9.89 nM | < 50 nM | COc1cnc(Cl)cc1-c1cc(C)ncc1C(=O)Nc1nc2ncc(N3CCC(CO)C3)cc2s1 (centres unmarked) [Example 60] | 501 nM | 100 to 500 nM | –
23 | 10.5 nM | < 50 nM | COc1cnc(Cl)cc1-c1cc(C)ncc1C(=O)Nc1nc2ncc(N3CC4CC(O)CC4C3)cc2s1 (centres unmarked) [Example 61] | 141 nM | 100 to 500 nM | –
24 | 16.9 nM | < 50 nM | COc1cnc(Cl)cc1-c1cc(C)ncc1C(=O)Nc1nc2ncc(N3CC4CC3CC4O)cc2s1 (centres unmarked) [Example 62] | 631 nM | 100 to 500 nM | –
25 | 5.58 nM | < 50 nM | COc1cnc(Cl)cc1-c1cc(C)ncc1C(=O)Nc1nc2ncc(NS(C)(=O)=O)cc2s1 [Example 63] | 1710 nM | > 1000 nM | –
26 | 25.4 nM | < 50 nM | COc1cnc(Cl)cc1-c1cc(C)ncc1C(=O)Nc1nc2ncc(N3CCCC(O)CC3)cc2s1 (centres unmarked) [Example 64] | 681 nM | 500 to 1000 nM | –
27 | 2.72 nM | < 50 nM | COc1cnc(Cl)cc1-c1cc(C)ncc1C(=O)Nc1nc2ncc(N3CCN(S(C)(=O)=O)CC3)cc2s1 [Example 65] | 42.2 nM | < 100 nM | –
28 | 4.98 nM | < 50 nM | COc1cnc(Cl)cc1-c1cc(C)ncc1C(=O)Nc1nc2ncc(N3CCC(OC)CC3)cc2s1 [Example 66] | 192 nM | 100 to 500 nM | –
29 | 6.18 nM | < 50 nM | COc1cnc(Cl)cc1-c1cc(C)ncc1C(=O)Nc1nc2ncc(N3CCC(O)C(C)C3)cc2s1 (centres unmarked) [Example 67] | 46.4 nM | < 100 nM | –
30 | 1.39 nM | < 50 nM | COc1cnc(Cl)cc1-c1cc(C)ncc1C(=O)Nc1nc2ncc(N3CCC(NS(C)(=O)=O)CC3)cc2s1 [Example 68] | 1120 nM | > 1000 nM | –
31 | 4.28 nM | < 50 nM | COc1cnc(Cl)cc1-c1cc(C)ncc1C(=O)Nc1nc2ncc(NC3CCN(S(C)(=O)=O)CC3)cc2s1 [Example 69] | 92.6 nM | < 100 nM | –
32 | 4.46 nM | < 50 nM | COc1cnc(Cl)cc1-c1cc(C)ncc1C(=O)Nc1nc2ncc(N3CCCC(O)C3)cc2s1 (centres unmarked) [Example 71] | 142 nM | 100 to 500 nM | –

Row | Compound | IC50 [1, 2] | IC50 [1, 3] | IC50 (cells; [4]) | IC50 (cells; [5]) | IC50 (cells; read-out: Cell viability assay IC50 (nM))
33 | COc1cccc(F)c1-c1cc(C)ncc1C(=O)Nc1nc2ccc([C@H]3CC[C@@H](O)CC3)nc2s1 [Example 31] | 66.4 nM | 50 to 200 nM | – | – | > 1000 nM
